Laboratory results taken from patent publication US12545673B2, “Imidazopyridine derivative and pharmaceutical composition comprising same as active ingredient” (TSD LIFE SCIENCES CO., LTD., priority 2019, dated 2026).
Like-named read-outs stand apart in the source and are kept apart here.

Columns and labels:
[1] = tested on: gastric cancer cell line AGS; experiment: Cancer cell proliferation inhibitory activity evaluation 2 (CCK-8), AGS; assay type: cell-based; details: Homo sapiens, read-out: Cancer cell proliferation inhibitory activity AGS
Procedure: (§1) In order to identify whether the compounds have anticancer activity, the acute myeloid leukemia cell line U937, the acute lymphoblastic leukemia cell line Jurkat, the gastric cancer cell lines AGS, […], and the human lung cancer cell line A549 were used. The cell line was cultured using RPMI-1640 medium (U937, Jurkat, AGS, A549) or DMEM (Hs746T) medium containing 10% fetal bovine serum. Welgene products were used as the medium, and hyclone products were used for fetal bovine serum, and 1% of antibiotics for cell culture from Gibco were used as the culture medium.

[2] = tested on: acute lymphoblastic leukemia cell line Jurkat; experiment: Cancer cell proliferation inhibitory activity evaluation 2 (CCK-8), Jurkat; assay type: cell-based; details: Homo sapiens
Procedure: as §1

[3] = tested on: acute myeloid leukemia cell line U937; experiment: Cancer cell proliferation inhibitory activity evaluation 2 (CCK-8), U937; assay type: cell-based; details: Homo sapiens, read-out: Cancer cell proliferation inhibitory activity U937
Procedure: as §1

[4] = tested on: human lung cancer cell line A549; experiment: Cancer cell proliferation inhibitory activity evaluation 2 (CCK-8), A549; assay type: cell-based
Procedure: as §1

[5] = target: MLK1 (Homo sapiens (Human), UniProt P80192); experiment: Evaluation of inhibitory activity of enzyme units, MLK1 ([γ-33P]-ATP filter assay); assay type: biochemical
[6] = tested on: gastric cancer cell line Hs746T; experiment: Cancer cell proliferation inhibitory activity evaluation 2 (CCK-8), Hs746T; assay type: cell-based; details: Homo sapiens
Procedure: as §1

[7] = target: MLK3 (Homo sapiens (Human), UniProt Q16584); experiment: Evaluation of inhibitory activity of enzyme units, MLK3 ([γ-33P]-ATP filter assay); details: read-out: IC50(nM) MLK3
[8] = 72 h, read-out: Cancer cell proliferation inhibitory activity Jurkat
[9] = A549, 72 h, read-out: Cancer cell proliferation inhibitory activity A549
[10] = 72 h, read-out: Cancer cell proliferation inhibitory activity Hs746T
[11] = 10 μM, 72 hours, CCK-8, read-out: Cancer cell proliferation inhibitory activity Jurkat
[12] = U-937, 10 μM, 72 hours, CCK-8 (Table 3)
[13] = A549, 10 μM, 72 hours, CCK-8, read-out: Cancer cell proliferation inhibitory activity A549
[14] = 10 μM, 72 hours, CCK-8, read-out: Cancer cell proliferation inhibitory activity Hs746T

MLK3, sequence (Q16584 whole entry, looked up): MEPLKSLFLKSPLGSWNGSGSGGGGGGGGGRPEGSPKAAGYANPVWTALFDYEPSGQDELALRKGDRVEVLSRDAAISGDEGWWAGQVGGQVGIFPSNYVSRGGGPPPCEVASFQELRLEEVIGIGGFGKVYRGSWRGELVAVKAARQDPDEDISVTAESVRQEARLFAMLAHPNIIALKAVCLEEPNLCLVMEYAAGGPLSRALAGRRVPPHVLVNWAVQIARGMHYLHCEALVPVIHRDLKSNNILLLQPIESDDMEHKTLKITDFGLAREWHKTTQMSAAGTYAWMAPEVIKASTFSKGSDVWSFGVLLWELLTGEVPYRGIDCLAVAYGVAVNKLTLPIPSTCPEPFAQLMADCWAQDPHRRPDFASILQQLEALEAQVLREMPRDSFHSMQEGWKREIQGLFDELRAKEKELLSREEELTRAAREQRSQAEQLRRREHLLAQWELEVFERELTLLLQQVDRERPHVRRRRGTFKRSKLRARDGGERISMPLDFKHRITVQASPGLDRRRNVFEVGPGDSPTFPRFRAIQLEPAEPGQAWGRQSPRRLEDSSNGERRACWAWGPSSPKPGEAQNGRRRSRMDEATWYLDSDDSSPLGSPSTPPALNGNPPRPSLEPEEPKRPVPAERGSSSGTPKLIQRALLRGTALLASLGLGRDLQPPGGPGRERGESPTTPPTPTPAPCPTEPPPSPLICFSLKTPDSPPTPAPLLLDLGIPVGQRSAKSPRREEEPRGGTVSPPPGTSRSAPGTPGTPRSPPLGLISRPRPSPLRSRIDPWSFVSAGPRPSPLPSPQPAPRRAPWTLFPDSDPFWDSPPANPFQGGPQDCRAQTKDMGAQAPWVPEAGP
MLK1, sequence (P80192 whole entry, looked up): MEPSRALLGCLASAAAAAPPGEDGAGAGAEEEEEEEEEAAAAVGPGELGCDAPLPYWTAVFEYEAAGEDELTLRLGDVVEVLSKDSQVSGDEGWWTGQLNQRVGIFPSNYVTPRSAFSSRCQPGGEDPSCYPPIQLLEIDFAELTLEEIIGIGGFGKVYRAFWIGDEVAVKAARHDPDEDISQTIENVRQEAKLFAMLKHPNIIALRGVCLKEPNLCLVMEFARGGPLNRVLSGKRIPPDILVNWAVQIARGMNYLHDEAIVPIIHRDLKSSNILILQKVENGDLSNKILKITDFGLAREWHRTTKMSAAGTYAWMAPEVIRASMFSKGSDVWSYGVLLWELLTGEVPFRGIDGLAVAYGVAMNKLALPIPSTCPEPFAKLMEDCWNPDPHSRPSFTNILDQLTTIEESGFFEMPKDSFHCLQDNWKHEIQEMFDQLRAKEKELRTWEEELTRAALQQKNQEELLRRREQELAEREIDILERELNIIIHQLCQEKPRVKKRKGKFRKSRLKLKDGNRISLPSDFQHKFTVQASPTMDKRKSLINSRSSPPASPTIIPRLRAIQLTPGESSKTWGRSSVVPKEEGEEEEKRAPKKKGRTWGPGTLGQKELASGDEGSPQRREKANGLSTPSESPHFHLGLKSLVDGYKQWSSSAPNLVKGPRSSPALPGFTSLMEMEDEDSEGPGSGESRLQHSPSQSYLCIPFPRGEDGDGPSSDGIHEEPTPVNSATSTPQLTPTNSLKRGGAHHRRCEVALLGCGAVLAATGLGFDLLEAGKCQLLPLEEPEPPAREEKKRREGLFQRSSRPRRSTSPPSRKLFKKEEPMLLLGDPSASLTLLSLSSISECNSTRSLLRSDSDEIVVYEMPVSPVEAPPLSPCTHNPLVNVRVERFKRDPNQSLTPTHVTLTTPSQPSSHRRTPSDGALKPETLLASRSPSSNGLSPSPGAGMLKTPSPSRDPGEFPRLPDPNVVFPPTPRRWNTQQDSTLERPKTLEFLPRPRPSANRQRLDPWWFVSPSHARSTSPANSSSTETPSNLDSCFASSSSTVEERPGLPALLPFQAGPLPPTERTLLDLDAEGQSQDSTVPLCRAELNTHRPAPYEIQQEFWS

Structure (SMILES) | inhibition at 10 µM ([1]; 72 h) | inhibition at 10 µM [2, 8] | inhibition at 10 µM ([3]; U-937, 72 h) | inhibition at 10 µM [4, 9] | IC50 [5] | inhibition at 10 µM [6, 10] | IC50 [7] | inhibition at 10 µM ([1]; 10 μM, 72 hours, CCK-8) | inhibition at 10 µM [2, 11] | inhibition at 10 µM [3, 12] | inhibition at 10 µM [4, 13] | inhibition at 10 µM [6, 14]
CCS(=O)(=O)N1CC[C@H](Nc2c(Br)cnc3nc(-c4cc(C)n(-c5cccc(NC(=O)CN(C)C)c5)c4C)[nH]c23)C1 [Example 64, (S)—N-(3-(3-(6-bromo-7-((1-(ethylsulfonyl)pyrrolidine-3-yl)amino)-1H-imidazo[4,5-b]pyridine-2-yl)-2,5-dimethyl-1H-pyrrol-1-yl)phenyl)-2-(dimethylamino) acetamide] | > 50% | > 50% | > 50% | > 50% | 34 nM | > 50% | 14 nM |  |  |  |  | 
CCS(=O)(=O)N1CC[C@H](Nc2c(Br)cnc3nc(-c4cc(C)n(-c5cccc(NC(=O)CN6CCN(C)CC6)c5C)c4C)[nH]c23)C1 [Example 87, N-(3-(3-(6-bromo-7-(((S)-1-(ethylsulfonyl)pyrrolidine-3-yl)amino)-1H-imidazo[4,5-b]pyridine-2-yl)-2,5-dimethyl-1H-pyrrol-1-yl)-2-methylphenyl)-2-(4-methylpiperazine-1-yl) acetamide] | > 50% | > 50% | > 50% | > 50% | 24 nM | > 50% | 13 nM |  |  |  |  | 
CCS(=O)(=O)N1CC[C@H](Nc2c(Br)cnc3[nH]c(-c4cc(C)n(-c5ccc(C(=O)NCCN6CCOCC6)cc5)c4C)nc23)C1 [Example 70, (S)-4-(3-(6-bromo-7-((1-(ethylsulfonyl)pyrrolidine-3-yl)amino)-3H-imidazo[4,5-b]pyridine-2-yl)-2,5-dimethyl-1H-pyrrol-1-yl)-N-(2-morpholinoethyl)benzamide] |  |  |  |  | 36 nM |  | 18 nM | > 50% | > 50% | > 50% | 10 to 50% | 10 to 50%
CCS(=O)(=O)N1CC[C@H](Nc2c(Br)cnc3nc(-c4cc(C)n(-c5cc(NC(=O)CN6CCOCC6)ccc5C)c4C)[nH]c23)C1 [Example 78, N-(3-(3-(6-bromo-7-(((S)-1-(ethylsulfonyl)pyrrolidine-3-yl)amino)-1H-imidazo[4,5-b]pyridine-2-yl)-2,5-dimethyl-1H-pyrrol-1-yl)-4-methylphenyl)-2-morpholinoacetamide] | > 50% | > 50% | > 50% | > 50% | 25 nM | > 50% | 47 nM |  |  |  |  | 
CCS(=O)(=O)N1CC[C@H](Nc2c(Br)cnc3nc(-c4cc(C)n(-c5ccc(C(=O)N6CCN(C)CC6)cc5)c4C)[nH]c23)C1 [Example 67, (S)-(4-(3-(6-bromo-7-((1-(ethylsulfonyl)pyrrolidine-3-yl)amino)-1H-imidazo[4,5-b]pyridine-2-yl)-2,5-dimethyl-1H-pyrrol-1-yl)phenyl) (4-methylpiperazine-1-yl) methanone] | > 50% | > 50% | > 50% | 10 to 50% | 32 nM | 10 to 50% | 19 nM |  |  |  |  | 
CCS(=O)(=O)N1CC[C@H](Nc2c(Br)cnc3[nH]c(-c4cc(C)n(-c5ccc(C(=O)NCCN6CCN(C)CC6)cc5)c4C)nc23)C1 [Example 72, (S)-4-(3-(6-bromo-7-((1-(ethylsulfonyl)pyrrolidine-3-yl)amino)-3H-imidazo[4,5-b]pyridine-2-yl)-2,5-dimethyl-1H-pyrrol-1-yl)-N-(2-(4-methylpiperazine-1-yl)ethyl)benzamide] | > 50% | > 50% | > 50% | 10 to 50% | 25 nM | > 50% | 15 nM |  |  |  |  | 
CCS(=O)(=O)N1CC[C@H](Nc2c(Br)cnc3[nH]c(-c4cc(C)n(-c5cccc(C(=O)NCCN6CCOCC6)c5)c4C)nc23)C1 [Example 69, (S)-3-(3-(6-bromo-7-((1-(ethylsulfonyl)pyrrolidine-3-yl)amino)-3H-imidazo[4,5-b]pyridine-2-yl)-2,5-dimethyl-1H-pyrrol-1-yl)-N-(2-morpholinoethyl)benzamide] | > 50% | > 50% | > 50% | 10 to 50% | 22 nM | 10 to 50% | 13 nM |  |  |  |  | 
CCS(=O)(=O)N1CC[C@H](Nc2c(Br)cnc3nc(-c4cc(C)n(-c5cccc(NC(=O)CCN(C)C)c5C)c4C)[nH]c23)C1 [Example 79] | > 50% | > 50% | > 50% | > 50% | 35 nM | > 50% | 7 nM |  |  |  |  | 
CCS(=O)(=O)N1CC[C@H](Nc2c(Br)cnc3[nH]c(-c4cc(C)n(-c5cccc(C(=O)N(C)CCN(C)C)c5)c4C)nc23)C1 [Example 61, (S)-3-(3-(6-bromo-7-((1-(ethylsulfonyl)pyrrolidine-3-yl)amino)-3H-imidazo[4,5-b]pyridine-2-yl)-2,5-dimethyl-1H-pyrrol-1-yl)-N-(2-(dimethylamino)ethyl)-N-methylbenzamide] | > 50% | > 50% | > 50% | > 50% | 19 nM | > 50% | 30 nM |  |  |  |  | 
CCS(=O)(=O)N1CC[C@H](Nc2c(Br)cnc3nc(-c4cc(C)n(-c5cccc(NC(=O)CN6CCN(C)CC6)c5)c4C)[nH]c23)C1 [Example 65] | > 50% | > 50% | > 50% | < 10% | 42 nM | > 50% | 26 nM |  |  |  |  | 
CCS(=O)(=O)N1CC[C@H](Nc2c(Br)cnc3nc(-c4cc(C)n(-c5cccc(C(=O)N6CCN(C)CC6)c5)c4C)[nH]c23)C1 [Example 68] | > 50% | > 50% | > 50% | > 50% | 25 nM | > 50% | 16 nM |  |  |  |  | 
CCS(=O)(=O)N1CC[C@H](Nc2c(Br)cnc3[nH]c(-c4cc(C)n(-c5cccc(C(=O)NCCN6CCN(C)CC6)c5)c4C)nc23)C1 [Example 71, (S)-3-(3-(6-bromo-7-((1-(ethylsulfonyl)pyrrolidine-3-yl)amino)-3H-imidazo[4,5-b]pyridine-2-yl)-2,5-dimethyl-1H-pyrrol-1-yl)-N-(2-(4-methylpiperazine-1-yl)ethyl)benzamide] | > 50% | > 50% | 10 to 50% | < 10% | 36 nM | > 50% | 26 nM |  |  |  |  | 
CCS(=O)(=O)N1CC[C@H](Nc2c(Br)cnc3nc(-c4cc(C)n(-c5cccc(C(=O)N6CCOCC6)c5C)c4C)[nH]c23)C1 [Example 83, (3-(3-(6-bromo-7-(((S)-1-(ethylsulfonyl)pyrrolidine-3-yl)amino)-1H-imidazo[4,5-b]pyridine-2-yl)-2,5-dimethyl-1H-pyrrol-1-yl)-2-methylphenyl) (morpholino) methanone] | > 50% | > 50% | > 50% | 10 to 50% | 22 nM | > 50% | 12 nM |  |  |  |  | 
Cc1ccc(NC(=O)CN2CCN(C)CC2)cc1-n1c(C)cc(-c2nc3ncc(Br)c(Nc4cccc(S(N)(=O)=O)c4)c3[nH]2)c1C [Example 89, N-(3-(3-(6-bromo-7-((3-sulfamoylphenyl)amino)-1H-imidazo[4,5-b]pyridine-2-yl)-2,5-dimethyl-1H-pyrrol-1-yl)-4-methylphenyl)-2-(4-methylpiperazine-1-yl) acetamide] |  |  |  |  | 169 nM |  | 81 nM | 10 to 50% | 10 to 50% | < 10% | < 10% | 10 to 50%
Cc1ccc(NC(=O)CN(C)C)cc1-n1c(C)cc(-c2nc3ncc(Br)c(Nc4cccc(S(N)(=O)=O)c4)c3[nH]2)c1C [Example 90, N-(3-(3-(6-bromo-7-((3-sulfamoylphenyl)amino)-1H-imidazo[4,5-b]pyridine-2-yl)-2,5-dimethyl-1H-pyrrol-1-yl)-4-methylphenyl)-2-(dimethylamino) acetamide] |  |  |  |  | 160 nM |  | 92 nM | > 50% | > 50% | 10 to 50% | 10 to 50% | 10 to 50%
